Measured values taken from article PMC9953468, “In Silico, In Vitro, and Ex Vivo Biological Activity of Some Novel Mebeverine Precursors” (Biomedicines, 2023).

What was measured:
Format in all cases: cell-based
[1] = system: Escherichia coli ATCC 25922; experiment: Antimicrobial activity, agar well diffusion method; details: Dose 0.6 mg/disk, dwell = 6 mm
Description: (§1) Eighteen tested microorganisms including five Gram-positive bacteria (Bacillus subtilis ATCC 6633, Bacillus amyloliquefaciens 4BCL-YT, Staphylococcus aureus ATCC 25923, Listeria monocytogenes NBIMCC 8632, Enterococcus faecalis ATCC 19433), five Gram-negative bacteria (Salmonella enteritidis ATCC 13076, Klebsiella sp.—clinical isolate, Escherichia coli ATCC 25922, Proteus vulgaris ATCC 6380, Pseudomonas aeruginosa ATCC 9027), two yeasts (Candida albicans NBIMCC 74, Saccharomyces cerevisiae ATCC 9763) and six fungi (Aspergillus niger ATCC 1015, Aspergillus flavus, Penicillium sp., Rhizopus sp., Mucor sp.—plant isolates, Fusarium moniliforme ATCC 38932) from the collection of the Department of Microbiology at the University of Food Technologies—Plovdiv, Bulgaria, were selected for the antimicrobial activity test.
(§2) The antimicrobial activity of the samples was determined by the agar well diffusion method. The tested bacteria B. subtilis and B. amyloliquefaciens were cultured on LBG agar at 30 °C. The test bacteria S. aureus, L. monocytogenes, E. faecalis, S. enteritidis, Klebsiella sp., E. coli, P. vulgaris and P. aeruginosa were cultured on LBG agar at 37 °C for 24 h. The yeast C. albicans was cultured on MEA at 37 °C, while S. cerevisiae was cultured on MEA at 30 °C for 24 h. The fungi A. niger, A. flavus, Penicillium sp., Rhizopus sp., Mucor sp., and F. moniliforme were grown on MEA at 30 °C for 7 days or until sporulation.
(§3) The inocula of the tested bacteria/yeasts were prepared by homogenization of a small amount of biomass in 5 mL of sterile 0.5% NaCl. The inocula of tested fungi were prepared by the addition of 5 mL of sterile 0.5% NaCl into the tubes. After stirring by vortex V-1 plus (Biosan), they were filtered and replaced in other tubes before use. The number of viable cells and fungal spores was determined using a bacterial counting chamber Thoma (Poly-Optik, GmbH, Bad Blankenburg, Germany). Their final concentrations were adjusted to 10^8 cfu/mL for bacterial/yeast cells and 10^5 cfu/mL for fungal spores and then inoculated in preliminarily melted and tempered at 45–48 °C LBG/MEA agar media. Next, the inoculated media were transferred in a quantity of 18 mL in sterile Petri plates (d = 90 mm) (Gosselin™, Hazebrouck, France) and allowed to harden. Then, six wells (d = 6 mm) per plate were cut, and triplicates of 60 μL of each extract were pipetted into the agar wells. The Petri plates were incubated in identical conditions.
(§4) The antimicrobial activity was determined by measuring the diameter of the inhibition zones around the wells on the 24th and 48th h of incubation. […]

[2] = system: Eighteen tested microorganisms (Gram-positive bacteria, Gram-negative bacteria, yeasts, fungi); experiment: Antimicrobial activity, agar well diffusion method, whole panel; details: whole panel of tested microorganisms, in words
Description: as §1, §2
The inocula of the tested bacteria/yeasts were prepared by homogenization of a small amount of biomass in 5 mL of sterile 0.5% NaCl. […] The number of viable cells and fungal spores was determined using a bacterial counting chamber Thoma (Poly-Optik, GmbH, Bad Blankenburg, Germany). […] Next, the inoculated media were transferred in a quantity of 18 mL in sterile Petri plates (d = 90 mm) (Gosselin™, Hazebrouck, France) and allowed to harden. […]
as §4

[3] = system: Klebsiella sp.; experiment: Antimicrobial activity, agar well diffusion method; details: Dose 0.6 mg/disk, dwell = 6 mm
Description: as §1, §2, §3, §4

[4] = system: Pseudomonas aeruginosa ATCC 9027; experiment: Antimicrobial activity, agar well diffusion method; details: Dose 0.6 mg/disk, dwell = 6 mm
Description: as §1, §2, §3, §4

[5] = system: Saccharomyces cerevisiae; experiment: Antimicrobial activity, agar well diffusion method; details: Dose 0.6 mg/disk, dwell = 6 mm
Description: as §1, §2, §3, §4

| Structure (SMILES) | Inhibition Zones [1] [mm] | antimicrobial activity [2] | Inhibition Zones [3] [mm] | Inhibition Zones [4] [mm] | Inhibition Zones [5] [mm] |
| --- | --- | --- | --- | --- | --- |
| CC(=O)NC(Cc1ccccc1)C(C)C (stereo not drawn) [Compound 4a, N-(3-methyl-1-phenylbutan-2-yl)acetamide] | 8 | inhibited only the growth of Escherichia coli | – | – | – |
| CC(C)C(N)Cc1ccccc1 (stereo not drawn) [Compound 3, 3-Methyl-1-phenylbutan-2-amine] | – | only modest activity against Gram-negative bacteria | 8 | 9 | 8 |
